In series [1] the test system is Rattus norvegicus. The experiment in a line: Anticonvulsant activity in pilocarpine-induced status epilepticus Sprague-Dawley rat model at 100 mg/kg, ip administered 2 hrs prior to pilocarpine challenge. In kind it is functional, organism-based.
Series [2] deals with Rattus norvegicus. The experiment in a line: Anticonvulsant activity in pilocarpine-induced status epilepticus Sprague-Dawley rat model assessed as delay in motor seizure onset time at 100 mg/kg, ip administered 2 hrs prior to pilocarpine challenge. In kind it is functional, organism-based.
The subject of series [3] is Rattus norvegicus. Put plainly: Anticonvulsant activity in pilocarpine-induced status epilepticus Sprague-Dawley rat model assessed as motor seizure onset time at 100 mg/kg, ip administered 2 hrs prior to pilocarpine challenge (reference value: 6 mins). The class given is functional.
For series [4], the system named is Rattus norvegicus. The experiment in a line: Anticonvulsant activity in pilocarpine-induced status epilepticus Sprague-Dawley rat model assessed as survival rate at 100 mg/kg, ip administered 2 hrs prior to pilocarpine challenge (reference value: 53%). In kind it is functional.
Series [5] concerns Rattus norvegicus. The experiment in a line: Anticonvulsant activity in pilocarpine-induced status epilepticus Sprague-Dawley rat model assessed as recovered from seizure within 90 to 120 mins at 100 mg/kg, ip administered 2 hrs prior to pilocarpine challenge. The class given is functional, organism-based.
Series [6] relates to Rattus norvegicus. The experiment in a line: Anticonvulsant activity in pilocarpine-induced status epilepticus Sprague-Dawley rat model assessed as decrease in progression of motor seizure at 100 mg/kg, ip administered 2 hrs prior to pilocarpine challenge. In kind it is functional, organism-based.
Series [7] deals with Rattus norvegicus. Put plainly: Anticonvulsant activity in pilocarpine-induced status epilepticus Sprague-Dawley rat model assessed as recovered from pre-stage of motor seizue within 30 mins at 100 mg/kg, ip administered 2 hrs prior to pilocarpine challenge. In kind it is functional, organism-based.
Series [8] concerns Rattus norvegicus. The experiment in a line: Toxicity in pilocarpine-induced status epilepticus Sprague-Dawley rat model assessed as sedation at 100 mg/kg, ip administered 2 hrs prior to pilocarpine challenge. The class given is organism-based. The settings on record: in vivo.
For series [9], the system named is Rattus norvegicus. Put plainly: Toxicity in pilocarpine-induced status epilepticus Sprague-Dawley rat model assessed as loss of righting reflex at 100 mg/kg, ip administered 2 hrs prior to pilocarpine challenge measured within 10 mins and upto 4 hrs. The class given is organism-based. The settings on record: in vivo.

Calls of active or inactive are those of the source. The rule behind the calls is not given here.

Turning to `O=C1OC2(C(=O)N(c3ccc(Cl)cc3)C(=O)N2C2CC2)c2ccccc21` (racemic), the result in series [1] was Active. In the case of `CCc1cccc(CC)c1N1C(=O)N(CC)C2(OC(=O)c3ccccc32)C1=O` (racemic), the result in series [1] was Active. Consider `CCc1ccc(N2C(=O)N(C3CC3)C3(OC(=O)c4ccccc43)C2=O)cc1` (racemic), for which the result in series [2] was Active. With `O=C1NC(=O)C(c2ccccc2)(c2ccccc2)N1` [PHENYTOIN], the Time in series [3] is 12 min. Besides, the survival at 100 mg/kg in series [4] was 67%. With `CCN1C(=O)N(c2ccc(OC)cc2OC)C(=O)C12OC(=O)c1ccccc12` (racemic), the outcome in series [1], in [2], in series [5], in series [6] and in [7] was Active. With `O=C1OC2(C(=O)N(c3ccccc3)C(=O)N2c2ccccc2)c2ccccc21` (racemic), the Activity result in series [8] and in [9] was “Toxic” throughout. For the molecule `O=C1OC2(C(=O)N(c3ccccc3)C(=O)N2C2CC2)c2ccccc21` (racemic), the Activity result in series [8] and in series [9] was “Toxic” throughout. `O=C1OC2(C(=O)N(c3ccc(Cl)cc3)C(=O)N2c2ccccc2)c2ccccc21` (racemic): the outcome in series [2] was Active.

For the molecule `O=C1OC2(C(=O)N(c3ccc([N+](=O)[O-])cc3)C(=O)N2C2CC2)c2ccccc21` (racemic), the result in [1] and in [5] was Active.

In the case of `CCN1C(=O)N(c2ccc([N+](=O)[O-])cc2)C(=O)C12OC(=O)c1ccccc12` (racemic), the outcome in [1] and in [5] was Active. As for `CCCN1C(=O)N(c2ccccc2)C(=O)C12OC(=O)c1ccccc12` (racemic), the Activity entry in series [8] and in [9] was “Toxic” each time. On to `O=C1OC2(C(=O)N(c3ccc([N+](=O)[O-])cc3)C(=O)N2c2ccccc2)c2ccccc21` (racemic), for which the Time in [3] amounted to 104 min.

Consider `CCCN1C(=O)N(c2ccccc2CC)C(=O)C12OC(=O)c1ccccc12` (racemic), for which the outcome in series [1] was Active. For `CCCN1C(=O)N(c2ccc(CC)cc2)C(=O)C12OC(=O)c1ccccc12` (racemic), in [2], the result was Active. `CCCN1C(=O)N(c2ccc([N+](=O)[O-])cc2)C(=O)C12OC(=O)c1ccccc12` (racemic): the result in series [1], in series [2] and in series [5] was Active.

Consider `CCCN1C(=O)N(c2ccc(Cl)cc2)C(=O)C12OC(=O)c1ccccc12` (racemic), for which the result in [1] was Active.

Source of the values: ChEMBL document CHEMBL3797201, “Synthesis of N-1', N-3'-disubstituted spirohydantoins and their anticonvulsant activities in pilocarpine model of temporal lobe epilepsy” (Bioorg Med Chem Lett, 2016).
